Several values for one entry are separate records, joined by “and”; a condition that tells them apart may be missing. Equal entries are not always repeated. Where two headings read alike, the source gives them in different places.
How the values were obtained:
[1] = Microdialysis (striatal dialysate and blood) in cynomolgus monkeys; assay type: in vivo, cynomolgus monkey; conditions: for Cmax: po, read-out: Cmax; for AUC: read-out: AUC
Method: Monkeys were sedated by intramuscular (i.m.) ketamine administration and cannulated for intravenous (i.v.) administration of propofol infusion (initiated 15–30 min after ketamine administration). Subsequently, the animals were placed in an magnetic resonance imaging (MRI)-compatible stereotaxic frame (Kopf Model 1430), and T1 and T2 weighted scans (for up to 1 h) were carried out with a 7 cm loop-coil in a 3 Tesla Siemens Magnetom TIM Trio (Germany). To derive the coordinates, Digital Imaging and Communications in Medicine (DICOM) files were transformed into Neuroimaging Informatics Technology Initiative (NIFTI) format. NIFTI-compatible images were loaded into 3D viewer software (MRIcro version 1.40 build 1), and the stereotaxic zero in the MRI image was determined using the coordinates of the earbar-tips. Coordinates for placement of the guide cannulas were calculated for every individual animal by use of MRI images and a primate brain map.
On a separate day, microdialysis guide cannulas were placed bilaterally in the head of the caudate nucleus using the same MRI compatible stereotaxic frame (Kopf Model 1430), under isoflurane anesthesia. Prior to surgery, animals were administered ketamine (i.m.), and subsequently anesthetized with isoflurane (0.8%-2% inhalation) while artificially ventilated with O2/N2O (40/60) at 60 to 80 mL tidal volume via an intratracheal tube. During surgery, subcutaneous or i.v. fluids were provided. Animals were allowed to recover from the anesthesia in a warmed environment, single housed, and given at a minimum a 14-day post-surgery recovery time. The following medications were administered to reduce pain and inflammation, as well as reduce the chance of post-operative infection: meloxicam (Metacam 5 mg/mL, 0.2 mg/kg, buprenorphine (Temgesic, 0.3 mg/mL, 0.0038 mg/kg), enrofloxacine (25 mg/mL, 5 mg/kg), and amoxicillin (150 mg/mL, 15 mg/kg).
Samples were stored in -80°C.
From monkeys only, whole blood samples (0.5 mL) were collected from the femoral vein at -1, 0, 1, 2, and 3 h relative to dosing and transferred immediately to chilled polypropylene 15 mL vials containing 2500 μL of 0.15% formic acid in acetonitrile, mixed, and placed on dry ice. After the collections samples were stored at -80°C.
Sample preparation for monkey dialysate and blood samples: Concentrations of fosmetpantotenate (D1 and D2), PA, and PPA in monkey dialysate and blood samples were determined by Brains On-Line LLC. […] For dialysate quantitation, standards and QC samples were prepared in control dialysate (0.2% BSA in aCSF: water: 0.04% ascorbic acid in aqueous 0.02 M formic acid [4.5:24:6 v/v/v]). Standards, QC samples, and dialysate (10 μL) were mixed with 6 μL 20 mM formic acid and 0.01% ascorbic acid in water containing internal standard (10 ng/mL of ^15N/^13C3-PA) and analyzed by LC-MS/MS. Blood standards and QC samples were prepared in supernatant from control monkey blood which had been treated with 5 volumes of 0.15% formic acid in acetonitrile. Endogenous levels >LLOQ were detected for PA in control quenched blood only and quantitated at 56.56 nM based on calibration standard prepared in solvent. To compensate for endogenous PA in the calibration curve control blood, PA standard curve concentrations were spiked plus endogenous levels. Sample work-up of blood involved diluting 10 μL supernatant from study blood samples, standards, and QC samples with 90 μL of 20 mM formic acid and 0.01% ascorbic acid in water, then treating with 4 μL 20 mM formic acid and 0.01% ascorbic acid in water containing internal standard (10 ng/mL of ^15N/^13C3-PA) and analyzing by LC-MS/MS.

[2] = Metabolic stability in monkey whole blood; assay type: in vitro ADME, cynomolgus monkey; conditions: for Percentage Remaining: monkey whole blood, replicates 1 and 2, listed as Fosmetpantotenate Total
Method: Metabolic stability in blood and liver microsomes: Fosmetpantotenate or its individual diastereomers (5 μM, n = 2, 37°C) were incubated in mouse, rat, cynomolgus monkey, and human whole blood. […] Incubations of fosmetpantotenate or its individual diastereomers (1 μM, n = 2, 37°C) in pooled liver microsomes (0.25 mg protein/mL in 0.1 M phosphate buffer pH 7.4) were initiated with the addition of nicotinamide adenine dinucleotide phosphate (NADPH; 1 mM). Aliquots (100 μL) were obtained at 0, 5, 10, 20, and 40 min and added to 150 μL of 0.1% formic acid in acetonitrile-containing carbamazepine (0.5 μM) as an analytical internal standard, centrifuged, and the supernatants analyzed by LC-MS/MS.
Bioanalysis for determinations of analyte stability: Samples were analyzed using a benchtop tandem quadrupole detector (TQD) mass spectrometer (Waters Ltd, Centennial Park, Hertfordshire). […] Suitable retention and peak shape with separation of the 2 diastereomers were obtained. The chromatography column was a Phenomenex-Kinetex XB C18 (2.10 x 50 mm; 2.6 μm), with a 0.7 mL/min flow rate and a 2 μL injection volume. […] The gradient was initiated with 20% B and increased linearly, reaching 40% B at 0.6 min, followed by 50% B at 0.8 min and by 95% B at 0.9 min. Conditions were kept isocratic through 1.2 min, returned to starting conditions (20% B) at 1.25 min, and maintained at 20% B through 1.5 min before the next injection. Since fosmetpantotenate is a mixture of diastereomers which are resolved chromatographically, the fosmetpantotenate MRM area corresponds to the sum of the MRM areas of the individual diastereomers.
The percent of compound remaining was determined from the MRM area response in each sample relative to that in the T = 0 samples (normalized for internal standard). Natural log plots of the percent compound remaining over time were used to determine the t½ of compound disappearance using the relationship t½ = -0.693/λ, where λ is the slope of the natural logarithm of the percent compound remaining vs time curve.

In the case of `COC(=O)CCNC(=O)[C@H](O)C(C)(C)COP(=O)(N[C@@H](C)C(=O)OC)Oc1ccccc1` (mixture of isomers) [Fosmetpantotenate], the “fold increase in dialysate AUC from 100 to 300 mg/kg” value ([1]; PA basal adjusted, analyte = label) is reported as 5.0 fold, the “fold increase in blood estimated exposure from 100 to 300 mg/kg” value ([1]; blood) is reported as ~ 3.6 fold and the concentration at 0.5 h ([1]; cynomolgus monkey, in vivo, 300 mg/kg, individual Cyno, Fosmetpantotentate 300 mg/kg PO, corrected for dilution, post-dose, time 0.5 hr, read-out: Fosmetpantotenate Dialysate Concentration) is reported as 2060 nM. For the same molecule, the concentration at 1 h ([1]; cynomolgus monkey, in vivo, 300 mg/kg, individual Cyno, Fosmetpantotentate 300 mg/kg PO, corrected for dilution, post-dose, time 1 hr, read-out: Fosmetpantotenate Dialysate Concentration) was 393 nM, the concentration at 1.5 h ([1]; cynomolgus monkey, in vivo, 300 mg/kg, individual Cyno, Fosmetpantotentate 300 mg/kg PO, corrected for dilution, post-dose, time 1.5 hr, read-out: Fosmetpantotenate Dialysate Concentration) was 76 nM and the concentration at 2 h ([1]; cynomolgus monkey, in vivo, 300 mg/kg, individual Cyno, Fosmetpantotentate 300 mg/kg PO, corrected for dilution, post-dose, time 2 hr, read-out: Fosmetpantotenate Dialysate Concentration) was 20 nM. The concentration at 2.5 h ([1]; cynomolgus monkey, in vivo, 300 mg/kg, individual Cyno, Fosmetpantotentate 300 mg/kg PO, corrected for dilution, post-dose, time 2.5 hr, read-out: Fosmetpantotenate Dialysate Concentration) was 7.12 nM, the concentration at 1 h ([1]; cynomolgus monkey, in vivo, 300 mg/kg, individual Cyno, Fosmetpantotentate 300 mg/kg PO, post-dose, time 1 hr, read-out: Fosmetpantotenate Blood Concentration) was 7390 nM and the concentration at 3 h ([1]; cynomolgus monkey, in vivo, 300 mg/kg, individual Cyno, Fosmetpantotentate 300 mg/kg PO, post-dose, time 3 hr, read-out: Fosmetpantotenate Blood Concentration) was 227 nM. It also gave a Cmax ([1]; cynomolgus monkey, in vivo, 100 mg/kg, blood, fosmetpantotenate 100 mg/kg PO, analyte = label) of 1650 ± 1930 nM, a Cmax ([1]; cynomolgus monkey, in vivo, 100 mg/kg, dialysate, fosmetpantotenate 100 mg/kg PO) of 221 ± 253 nM and a Cmax ([1]; cynomolgus monkey, in vivo, 300 mg/kg, dialysate, fosmetpantotenate 300 mg/kg PO, mean (individual values)) of 1560 nM. For the same molecule, the AUC ([1]; cynomolgus monkey, in vivo, dialysate, fosmetpantotenate 100 mg/kg PO) was 0.209 ± 0.234 µM·h, the AUC ([1]; cynomolgus monkey, in vivo, dialysate, fosmetpantotenate 300 mg/kg PO, mean (individual values)) was 1.03 µM·h and the concentration at 3 h ([1]; cynomolgus monkey, in vivo, individual Cyno, Fosmetpantotentate 300 mg/kg PO, corrected for dilution, post-dose, time 3 hr, LLOQ D1=0.2 nM, D2=0.3 nM, read-out: Fosmetpantotenate Dialysate Concentration) was 23.7 nM. The Cmax ([1]; cynomolgus, cynomolgus monkey, in vivo, 300 mg/kg, blood, fosmetpantotenate 300 mg/kg PO, mean (individual values), analyte = label) was 6040 nM, the AUC ([1]; cynomolgus, cynomolgus monkey, in vivo, blood, fosmetpantotenate 100 mg/kg PO, analyte = label) was 1.87 ± 1.96 µM·h and the AUC ([1]; cynomolgus, cynomolgus monkey, in vivo, blood, fosmetpantotenate 300 mg/kg PO, mean (individual values), analyte = label) was 6.81 µM·h. For the same molecule, the concentration at 3 h ([1]; individual Cyno, Fosmetpantotentate 300 mg/kg PO, corrected for dilution, post-dose, time 0.5 hr, read-out: Fosmetpantotenate Dialysate Concentration) was 1059.88 nM, the concentration at 3 h ([1]; individual Cyno, Fosmetpantotentate 300 mg/kg PO, corrected for dilution, post-dose, time 1 hr, read-out: Fosmetpantotenate Dialysate Concentration) was 429.27 nM and the concentration at 3 h ([1]; individual Cyno, Fosmetpantotentate 300 mg/kg PO, corrected for dilution, post-dose, time 1.5 hr, read-out: Fosmetpantotenate Dialysate Concentration) was 72.40 nM. The concentration at 3 h ([1]; individual Cyno, Fosmetpantotentate 300 mg/kg PO, corrected for dilution, post-dose, time 2 hr, read-out: Fosmetpantotenate Dialysate Concentration) was 19.06 nM, the concentration at 3 h ([1]; individual Cyno, Fosmetpantotentate 300 mg/kg PO, corrected for dilution, post-dose, time 2.5 hr, read-out: Fosmetpantotenate Dialysate Concentration) was 4.54 nM and the “Fosmetpantotenate Dialysate Concentration” value ([1]; individual Cyno, Fosmetpantotentate 300 mg/kg PO, corrected for dilution, post-dose, time 3 hr, LLOQ D1=0.2 nM, D2=0.3 nM) was “BLQ”. For the same molecule, the “Fosmetpantotenate Dialysate Concentration” value ([1]; individual Cyno, Fosmetpantotentate 300 mg/kg PO, corrected for dilution, pre-dose, time 0 hr, LLOQ D1=0.2 nM, D2=0.3 nM) was “<LLOQ”, the “Fosmetpantotenate Dialysate Concentration” value ([1]; individual Cyno, Fosmetpantotentate 300 mg/kg PO, corrected for dilution, pre-dose, time -0.5 hr, LLOQ D1=0.2 nM, D2=0.3 nM) was “<LLOQ” and the “Fosmetpantotenate Dialysate Concentration” value ([1]; individual Cyno, Fosmetpantotentate 300 mg/kg PO, corrected for dilution, pre-dose, time -1 hr, LLOQ D1=0.2 nM, D2=0.3 nM) was “<LLOQ”. The concentration at 1 h ([1]; individual Cyno, Fosmetpantotentate 300 mg/kg PO, post-dose, time 1 hr, read-out: Fosmetpantotenate Blood Concentration) was 4687.62 nM, the concentration at 1 h ([1]; individual Cyno, Fosmetpantotentate 300 mg/kg PO, post-dose, time 2 hr, read-out: Fosmetpantotenate Blood Concentration) was 1026.66 nM and 312.23 nM and the concentration at 1 h ([1]; individual Cyno, Fosmetpantotentate 300 mg/kg PO, post-dose, time 3 hr, read-out: Fosmetpantotenate Blood Concentration) was 183.68 nM. The “Fosmetpantotenate Blood Concentration” value ([1]; individual Cyno, Fosmetpantotentate 300 mg/kg PO, pre-dose, time 0 hr relative to dose) was “<LLOQ”, the “Fosmetpantotenate Blood Concentration” value ([1]; individual Cyno, Fosmetpantotentate 300 mg/kg PO, pre-dose, time -1 hr relative to dose) was “<LLOQ” and the half-life at 5 μM ([2]; monkey blood, 5 μM, 37°C, 60 min) was 41 min. The “Percentage Remaining” value ([2]; 5 min) was 79% and 108%, the “Percentage Remaining” value ([2]; 15 min) was 66% and 98% and the “Percentage Remaining” value ([2]; 30 min) was 45% and 79%. The “Percentage Remaining” value ([2]; 60 min) was 22% and 35%, the “Percentage Remaining” value ([2]; 90 min) was 15% and 35% and the “Percentage Remaining” value ([2]; 120 min) was 10% and 17%.

Reference: article PMC5844530, “Fosmetpantotenate (RE-024), a phosphopantothenate replacement therapy for pantothenate kinase-associated neurodegeneration: Mechanism of action and efficacy in nonclinical models” (PLoS ONE, 2018)
